17 molecules from US20090270363A1, “2-Aryl- and 2-Heteroarylthiazolyl Compounds, Methods for Their Preparation and Use Thereof” (Wyeth, priority 2008, published 2009) can be followed below.

What all share (assay type): cell-based
Experiment [1] concerns securin "knock out" cells D8 (Securin-/-). Description: Growth inhibition (sulforhodamine B, 5 days) of securin knock out cells D8. The note with it: for IC50: 120 h, securin knock out D8 cells, 5 days, SRB; for Selectivity Ratio D8: IC50 HCT116 / IC50 securin KO D8. On the procedure: (§1) IC50 analysis was performed for selected fused bicyclic 2-aryl or 2-heteroarylthiazolyl compounds that were tested on HCT116 cells and Securin “knock out” cell lines.
(§2) Cell Culture—HCT116 and securin “knock out” cells. HCT116 and securin “knock out” cells (D8 and F3) were grown in RPMI+5% fetal bovine serum and gentamycin. They were maintained in a humidified 37° C. incubator with 5% CO2. Since the securin “knock out” cells have active chromosomal instability, cells were used at a low passage number of 2-13 passages. At or before passage 13 a new vial of cells was thawed and used for the screen. Cell seeding—HCT116 cells and securin “knock out” cells were trypsinized and suspended in RPMI+5% FBS at a density of 27,000 cells/mL. HCT116 and securin “knock out” cells were seeded separately in wells of a 96-well plate (Falcon Cat # 35-3872) at a cell density of 4000 cells per well. Cells were seeded in 150 μL of RPMI media containing 5% FBS and gentamycin. Cell seeding was performed under aseptic conditions. Cells were allowed to attach and grow overnight in a humidified 37° C. incubator.
(§3) Compound Dilution and Dispensation. A series of stock solutions, 10 mg/mL of fused bicyclic 2-aryl- or 2-heteroarylthiazolyl compounds to be tested, were brought to room temperature. The compounds were diluted 1:50 in RPMI+5% FBS (Highest concentration 200 μg/mL). The compounds were then serially diluted 1:3 across a deep-well titration plate resulting in final concentrations in the plate of 200, 66.7, 22.2, 7.4, 2.4, 0.8, 0.27, 0.091, 0.03, 0.01, and 0.0034 μg/mL with one well left without a compound. 50 μL of this dilution series was added to the 150 μL of cells to result in a final concentration of compound in with the cells of 50, 16.6, 5.5, 1.8, 0.6, 0.2, 0.068, 0.023, 0.0076, 0.0025, and 0.00084 μg/mL. The dilution and addition of compounds to the plates is performed using a Multimek 96 Robot (Beckman Coulter).
(§4) Incubation and analysis. After dosing, the cells in the 96 well plates were returned to the humidified 37° C. incubator. The compounds remained on the cells for 5 days. After 5 days, the cells were fixed to the plates with the addition of 50 μL of 50% (vol/vol) Trichloro Acetic Acid ([…]). The cells were fixed at 4° C. for 1 hour. The plates were washed 5 times in distilled water and allowed to dry. The cells were stained with 0.4% sulforhodamine B (Sigma) in 1% acetic acid. The cells were stained for 15 minutes at room temperature. The plates were then washed 3 times in 1% acetic acid. The plates were dried and the dye was solubilized in 10 mM Tris at pH 8.0. The plates were read on the Absorbence 560 setting on a Victor^2 V Model 1420 Multilabel HTS counter (Perkin Elmer).
(§5) Analysis of Results—IC50 data. Absorbence data was read off of the Victor and was converted to a percentage of the control (untreated) values. IC50 values were graphed and the point at which a 50% inhibition of the control level was determined. […] If the model was not able to determine an IC50, the IC50 was assigned to the lowest concentration that gives a 50% or greater decrease in absorbence compared to control levels. If the calculated IC50 value for a cell line exceeds the top concentration for the assay (typically 50 μg/mL), the assay was scored as >50.
(§6) Selectivity Ratio. The Selectivity Ratio is the ratio of IC50s between the parent cell line and the knock out cell line and is always a positive number and is typically an integer.

Experiment [2] has as its system securin "knock out" cells F3 (Securin-/-). Description: Growth inhibition (sulforhodamine B, 5 days) of securin knock out cells F3. The note with it: for IC50: 120 h, securin knock out F3 cells, 5 days, SRB; for Selectivity Ratio F3: IC50 HCT116 / IC50 securin KO F3. On the procedure: as §1, §2, §3, §4, §5, §6
Experiment [3] deals with HCT116 cells (Securin+/+, securin parental, HCT116 FB). Description: Growth inhibition (sulforhodamine B, 5 days) of securin parental cells. The note with it: Homo sapiens, HCT-116, 120 h, SRB. On the procedure:
as §1, §2, §3, §4, §5, §6

Each structure is given as a SMILES string.

With `CC(O)c1cc(N(C)C)ccc1-c1nc2c(s1)C(O)CCC2` (stereo not shown) [Example 73, 2-[4-(dimethylamino)-2-(1-hydroxyethyl)phenyl]-4,5,6,7-tetrahydro-1,3-benzothiazol-7-ol], in experiment [1], the midpoint of inhibition, the IC50, lay at 0.44 µM and the “Selectivity Ratio D8” value turned out to be 226. In experiment [2], the half-inhibitory concentration (IC50) was 0.79 µM and the “Selectivity Ratio F3” value is on record as 126. Also, the IC50 in experiment [3] was 99.5 µM.
Taken in the same sequence, the figures for `CC(=O)c1cc(N(C)C)ccc1-c1nc2c(s1)C(O)CCC2` (stereo not shown) [Example 74, 1-[5-(dimethylamino)-2-(7-hydroxy-4,5,6,7-tetrahydro-1,3-benzothiazol-2-yl)phenyl]ethanone] were 0.15 µM, 650, 0.18 µM, 558 and 100 µM.
Regarding `CC(=O)c1c(-c2nc3c(s2)C(O)CCC3)ccc(N(C)C)c1Br` (stereo not shown) [Example 81, 1-[2-bromo-3-(dimethylamino)-6-(7-hydroxy-4,5,6,7-tetrahydro-1,3-benzothiazol-2-yl)phenyl]ethanone], in experiment [1], the midpoint of inhibition, the IC50, lay at 0.13 µM and the “Selectivity Ratio D8” value is recorded as 459. In experiment [2], inhibition was half-maximal at 0.35 µM (IC50) and the “Selectivity Ratio F3” value was determined as 170. In addition, the IC50 in experiment [3] was 58.9 µM.
Taken in the same sequence, the figures for `N#Cc1cc(N2CCCC2)ccc1-c1nc2c(s1)C(O)CCC2` (stereo not shown) [Example 85, 2-(7-hydroxy-4,5,6,7-tetrahydro-1,3-benzothiazol-2-yl)-5-pyrrolidin-1-ylbenzonitrile] were 0.19 µM, 253, 0.31 µM, 159 and 48.4 µM.
Taken in the same sequence, the figures for `Cc1cc(N(C)C)ccc1-c1nc2c(s1)[C@H](O)CCC2` [Example 99, (7R)-2-[4-(dimethylamino)-2-methylphenyl]-4,5,6,7-tetrahydro-1,3-benzothiazol-7-ol] were 0.24 µM, 709, 0.21 µM, 810 and not below 173 µM.
Taken in the same sequence, the figures for `CC(C)OC(=O)c1cc(N(C)C)ccc1-c1nc2c(s1)C(O)CCC2` (stereo not shown) [Example 111, isopropyl 5-(dimethylamino)-2-(7-hydroxy-4,5,6,7-tetrahydro-1,3-benzothiazol-2-yl)benzoate] were 1.3 µM, 75, 1.4 µM, 71 and 100 µM.
On to `C=CCOC(=O)c1cc(N(C)C)ccc1-c1nc2c(s1)C(O)CCC2` (stereo not shown) [Example 112, allyl 5-(dimethylamino)-2-(7-hydroxy-4,5,6,7-tetrahydro-1,3-benzothiazol-2-yl)benzoate], for which, in experiment [1], half-maximal inhibition (IC50) was put at 0.54 µM and the “Selectivity Ratio D8” value worked out at 182. Further, in experiment [2], the midpoint of inhibition, the IC50, lay at 0.72 µM and the “Selectivity Ratio F3” value turned out to be 135. The IC50 in experiment [3] was 97.3 µM.
In the case of `CN(C)c1ccc(-c2nc3c(s2)C(O)CCC3)c(C(=O)OCc2ccoc2)c1` (stereo not shown) [Example 116, 3-furylmethyl 5-(dimethylamino)-2-(7-hydroxy-4,5,6,7-tetrahydro-1,3-benzothiazol-2-yl)benzoate], in experiment [1], the IC50 worked out at 0.59 µM and the “Selectivity Ratio D8” value is recorded as 145. Moreover, in experiment [2], 0.82 µM corresponded to half-maximal inhibition (IC50) and the “Selectivity Ratio F3” value is given as 104. Further, the half-maximal inhibitory concentration (IC50) in experiment [3] was found to be 85.2 µM.
Taken in the same sequence, the figures for `CCCOC(=O)c1cc(N(C)C)ccc1-c1nc2c(s1)C(O)CCC2` (stereo not shown) [Example 121, propyl 5-(dimethylamino)-2-(7-hydroxy-4,5,6,7-tetrahydro-1,3-benzothiazol-2-yl)benzoate] were 0.69 µM, 112, 1.7 µM, 44 and 77.3 µM.
On to `CN(C)c1ccc(-c2nc3c(s2)C(O)CCC3)c(C(=O)OCc2ccsc2)c1` (stereo not shown) [Example 122, 3-thienylmethyl 5-(dimethylamino)-2-(7-hydroxy-4,5,6,7-tetrahydro-1,3-benzothiazol-2-yl)benzoate], for which the half-inhibitory concentration (IC50) amounted to 0.76 µM in experiment [1], 2.1 µM in experiment [2] and 42.2 µM in experiment [3]. In addition, the “Selectivity Ratio D8” value in experiment [1] worked out at 55. Besides, the “Selectivity Ratio F3” value in experiment [2] is listed as 20.
Taken in the same sequence, the figures for `CN(C)c1ccc(-c2nc3c(s2)C(O)CCC3)c(C(=O)OCc2cccs2)c1` (stereo not shown) [Example 123, 2-thienylmethyl 5-(dimethylamino)-2-(7-hydroxy-4,5,6,7-tetrahydro-1,3-benzothiazol-2-yl)benzoate] were 1.7 µM, 4.4 µM, 90 µM, 52 and 20.
Taken in the same sequence, the figures for `CN(C)c1ccc(-c2nc3c(s2)C(O)CCC3)c(C(=O)OCc2cccnc2)c1` (stereo not shown) [Example 126, pyridin-3-ylmethyl 5-(dimethylamino)-2-(7-hydroxy-4,5,6,7-tetrahydro-1,3-benzothiazol-2-yl)benzoate] were 1.9 µM, 2.5 µM, 100 µM, 54 and 40.
Taken in the same sequence, the figures for `CN(C)c1ccc(-c2nc3c(s2)C(O)CCC3)c(C(=O)OCc2ccncc2)c1` (stereo not shown) [Example 127, pyridin-4-ylmethyl 5-(dimethylamino)-2-(7-hydroxy-4,5,6,7-tetrahydro-1,3-benzothiazol-2-yl)benzoate] were 4.9 µM, 6.3 µM, 100 µM, 20 and 16.
For the molecule `CN(C)c1ccc(-c2nc3c(s2)C(O)CCC3)c(C(=O)OCc2ccccn2)c1` (stereo not shown) [Example 128, pyridin-2-ylmethyl 5-(dimethylamino)-2-(7-hydroxy-4,5,6,7-tetrahydro-1,3-benzothiazol-2-yl)benzoate], in experiment [1], the IC50 was found to be 1.9 µM and the “Selectivity Ratio D8” value was 45. In experiment [2], the IC50 amounted to 2.6 µM and the “Selectivity Ratio F3” value worked out at 33. Besides, the IC50 in experiment [3] is 86.7 µM.
For the molecule `C#CCOC(=O)c1cc(N(C)C)ccc1-c1nc2c(s1)C(O)CCC2` (stereo not shown) [Example 129, prop-2-yn-1-yl 5-(dimethylamino)-2-(7-hydroxy-4,5,6,7-tetrahydro-1,3-benzothiazol-2-yl)benzoate], the IC50 turned out to be 0.36 µM in experiment [1], 0.45 µM in experiment [2] and 77.8 µM in experiment [3]. The “Selectivity Ratio D8” value in experiment [1] was determined as 216. Besides, in experiment [2], the “Selectivity Ratio F3” value stood at 172.
Taken in the same sequence, the figures for `C/C=C/COC(=O)c1cc(N(C)C)ccc1-c1nc2c(s1)C(O)CCC2` (stereo not shown) [Example 130, (2E)-but-2-en-1-yl 5-(dimethylamino)-2-(7-hydroxy-4,5,6,7-tetrahydro-1,3-benzothiazol-2-yl)benzoate] were 2 µM, 2.4 µM, 77.6 µM, 38 and 32.
On to `CC#CCOC(=O)c1cc(N(C)C)ccc1-c1nc2c(s1)C(O)CCC2` (stereo not shown) [Example 133, but-2-yn-1-yl 5-(dimethylamino)-2-(7-hydroxy-4,5,6,7-tetrahydro-1,3-benzothiazol-2-yl)benzoate], for which the half-maximal inhibitory concentration (IC50) in experiment [1] was determined as 1.1 µM; in experiment [2], 1.8 µM; in experiment [3], 96.5 µM. For the same molecule, the “Selectivity Ratio D8” value in experiment [1] was 87. Moreover, in experiment [2], the “Selectivity Ratio F3” value is on record as 54.
